Marks after values point to notes of the source that are not given here.
System: anti collagen antibodies induced arthritis (ACAIA)
Assay: Anti collagen antibodies induced arthritis (ACAIA) in mice, intra-articular treatment: paw thickness, arthritis clinical score, body weight;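 note: mouse arthritis induced by IV anti-collagen mAb on day 0 plus IP LPS on day 4, with body weight, caliper paw thickness and 0-4 paw score tracked against a day 0 baseline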
[1] = 0.01 mg/kg IA (Group 5), Baseline
[2] = 0.01 mg/kg IA (Group 5), Day 10
[3] = 0.01 mg/kg IA (Group 5), Day 12
[4] = 0.1 mg/kg IA (Group 4), Baseline

Cn1cc(-c2cccc(O)c2Oc2ccccc2)c2cc[nH]c2c1=O [BETi1]
Clinical score of treated leg (Avg.) [1]: 0.00 points
Paw thickness Avg. Delta untreated -treated [1]: −0.08 mm
Paw thickness of treated leg (Avg.) [1]: 2.06 mm
Paw thickness of untreated leg (Avg.) [1]: 1.98 mm
Percent change of weight per day (Av) [1]: 100.00%
Δ clinical score untreated -treated, Avg. Delta [1]: 0.00 points
Clinical score of treated leg (Avg.) (0.01 mg/kg IA (Group 5), Day 3): 0.00 points
Paw thickness Avg. Delta untreated -treated (0.01 mg/kg IA (Group 5), Day 3): 0.02 mm
Paw thickness of treated leg (Avg.) (0.01 mg/kg IA (Group 5), Day 3): 2.12 mm
Paw thickness of untreated leg (Avg.) (0.01 mg/kg IA (Group 5), Day 3): 2.14 mm
Percent change of weight per day (Av) (0.01 mg/kg IA (Group 5), Day 3): 99.39%
Δ clinical score untreated -treated, Avg. Delta (0.01 mg/kg IA (Group 5), Day 3): 0.00 points
Clinical score of treated leg (Avg.) (0.01 mg/kg IA (Group 5), Day 4): 0.00 points
Paw thickness Avg. Delta untreated -treated (0.01 mg/kg IA (Group 5), Day 4): 0.00 mm
Paw thickness of treated leg (Avg.) (0.01 mg/kg IA (Group 5), Day 4): 2.18 mm
Paw thickness of untreated leg (Avg.) (0.01 mg/kg IA (Group 5), Day 4): 2.18 mm
Percent change of weight per day (Av) (0.01 mg/kg IA (Group 5), Day 4): 96.62%
Δ clinical score untreated -treated, Avg. Delta (0.01 mg/kg IA (Group 5), Day 4): 0.00 points
Clinical score of treated leg (Avg.) (0.01 mg/kg IA (Group 5), Day 5): 0.00 points
Paw thickness Avg. Delta untreated -treated (0.01 mg/kg IA (Group 5), Day 5): 0.00 mm
Paw thickness of treated leg (Avg.) (0.01 mg/kg IA (Group 5), Day 5): 2.18 mm
Paw thickness of untreated leg (Avg.) (0.01 mg/kg IA (Group 5), Day 5): 2.17 mm
Percent change of weight per day (Av) (0.01 mg/kg IA (Group 5), Day 5): 89.80%
Δ clinical score untreated -treated, Avg. Delta (0.01 mg/kg IA (Group 5), Day 5): 0.00 points
Clinical score of treated leg (Avg.) (0.01 mg/kg IA (Group 5), Day 6): 0.71 points
Paw thickness Avg. Delta untreated -treated (0.01 mg/kg IA (Group 5), Day 6): 0.05 mm
Paw thickness of treated leg (Avg.) (0.01 mg/kg IA (Group 5), Day 6): 2.34 mm
Paw thickness of untreated leg (Avg.) (0.01 mg/kg IA (Group 5), Day 6): 2.39 mm
Percent change of weight per day (Av) (0.01 mg/kg IA (Group 5), Day 6): 88.03%
Δ clinical score untreated -treated, Avg. Delta (0.01 mg/kg IA (Group 5), Day 6): 0.14 points
Clinical score of treated leg (Avg.) (0.01 mg/kg IA (Group 5), Day 7): 1.86 points
Paw thickness Avg. Delta untreated -treated (0.01 mg/kg IA (Group 5), Day 7): 0.02 mm
Paw thickness of treated leg (Avg.) (0.01 mg/kg IA (Group 5), Day 7): 2.60 mm
Paw thickness of untreated leg (Avg.) (0.01 mg/kg IA (Group 5), Day 7): 2.62 mm
Percent change of weight per day (Av) (0.01 mg/kg IA (Group 5), Day 7): 91.87%
Δ clinical score untreated -treated, Avg. Delta (0.01 mg/kg IA (Group 5), Day 7): −0.29 points
Clinical score of treated leg (Avg.) (0.01 mg/kg IA (Group 5), Day 8): 1.86 points
Paw thickness Avg. Delta untreated -treated (0.01 mg/kg IA (Group 5), Day 8): −0.01 mm
Paw thickness of treated leg (Avg.) (0.01 mg/kg IA (Group 5), Day 8): 2.64 mm
Paw thickness of untreated leg (Avg.) (0.01 mg/kg IA (Group 5), Day 8): 2.63 mm
Percent change of weight per day (Av) (0.01 mg/kg IA (Group 5), Day 8): 89.85%
Δ clinical score untreated -treated, Avg. Delta (0.01 mg/kg IA (Group 5), Day 8): −0.14 points
Clinical score of treated leg (Avg.) [2]: 2.14 points
Paw thickness Avg. Delta untreated -treated [2]: 0.05 mm
Paw thickness of treated leg (Avg.) [2]: 2.68 mm
Paw thickness of untreated leg (Avg.) [2]: 2.73 mm
Percent change of weight per day (Av) [2]: 89.71%
Δ clinical score untreated -treated, Avg. Delta [2]: 0.00 points
Clinical score of treated leg (Avg.) [3]: 2.43 points
Paw thickness Avg. Delta untreated -treated [3]: −0.20 mm
Paw thickness of treated leg (Avg.) [3]: 3.01 mm
Paw thickness of untreated leg (Avg.) [3]: 2.80 mm
Percent change of weight per day (Av) [3]: 92.75%
Δ clinical score untreated -treated, Avg. Delta [3]: −1.00 points
Clinical score of treated leg (Avg.) [4]: 0.00 points
Paw thickness Avg. Delta untreated -treated [4]: −0.04 mm
Paw thickness of treated leg (Avg.) [4]: 2.06 mm
Paw thickness of untreated leg (Avg.) [4]: 2.01 mm
Percent change of weight per day (Av) [4]: 100.00%
Δ clinical score untreated -treated, Avg. Delta [4]: 0.00 points
Clinical score of treated leg (Avg.) (0.1 mg/kg IA (Group 4), Day 3): 0.00 points
Paw thickness Avg. Delta untreated -treated (0.1 mg/kg IA (Group 4), Day 3): −0.05 mm
Paw thickness of treated leg (Avg.) (0.1 mg/kg IA (Group 4), Day 3): 2.18 mm
Paw thickness of untreated leg (Avg.) (0.1 mg/kg IA (Group 4), Day 3): 2.14 mm
Percent change of weight per day (Av) (0.1 mg/kg IA (Group 4), Day 3): 101.00%
Δ clinical score untreated -treated, Avg. Delta (0.1 mg/kg IA (Group 4), Day 3): 0.00 points
Clinical score of treated leg (Avg.) (0.1 mg/kg IA (Group 4), Day 4): 0.00 points
Paw thickness Avg. Delta untreated -treated (0.1 mg/kg IA (Group 4), Day 4): 0.04* mm
Paw thickness of treated leg (Avg.) (0.1 mg/kg IA (Group 4), Day 4): 2.17 mm
Paw thickness of untreated leg (Avg.) (0.1 mg/kg IA (Group 4), Day 4): 2.21 mm
Percent change of weight per day (Av) (0.1 mg/kg IA (Group 4), Day 4): 99.30%
Δ clinical score untreated -treated, Avg. Delta (0.1 mg/kg IA (Group 4), Day 4): 0.00 points
Clinical score of treated leg (Avg.) (0.1 mg/kg IA (Group 4), Day 5): 0.00 points
Paw thickness Avg. Delta untreated -treated (0.1 mg/kg IA (Group 4), Day 5): −0.02 mm
Paw thickness of treated leg (Avg.) (0.1 mg/kg IA (Group 4), Day 5): 2.17 mm
Paw thickness of untreated leg (Avg.) (0.1 mg/kg IA (Group 4), Day 5): 2.15 mm
Percent change of weight per day (Av) (0.1 mg/kg IA (Group 4), Day 5): 91.11%
Δ clinical score untreated -treated, Avg. Delta (0.1 mg/kg IA (Group 4), Day 5): 0.00 points
Clinical score of treated leg (Avg.) (0.1 mg/kg IA (Group 4), Day 6): 1.57** points
Paw thickness Avg. Delta untreated -treated (0.1 mg/kg IA (Group 4), Day 6): 0.06 mm
Paw thickness of treated leg (Avg.) (0.1 mg/kg IA (Group 4), Day 6): 2.57* mm
Paw thickness of untreated leg (Avg.) (0.1 mg/kg IA (Group 4), Day 6): 2.63 mm
Percent change of weight per day (Av) (0.1 mg/kg IA (Group 4), Day 6): 88.63%
Δ clinical score untreated -treated, Avg. Delta (0.1 mg/kg IA (Group 4), Day 6): −0.43 points
Clinical score of treated leg (Avg.) (0.1 mg/kg IA (Group 4), Day 7): 2.00 points
Paw thickness Avg. Delta untreated -treated (0.1 mg/kg IA (Group 4), Day 7): 0.05 mm

Source: patent US20250339409A1, “USES OF PAN BET INHIBITORS” (VYNE THERAPEUTICS INC., priority 2021, published 2025)
